“And” between values parts separate entries of the source, which are not always exact repeats. Identical values can stand only once. Toxic doses and inconclusive results are not listed. Rule as the data show it: active = T/C of 150% or more; inactive = T/C below 125%. Peptide text beside a SMILES is read from it. * marks the point of attachment. For = O=C*
Tested on: L1210 leukemia ip in BDF1 mice, survival T/C
Experiment: NCI In Vivo Anticancer Drug Screen. Data for tumor model L1210 Leukemia (intraperitoneal) in B6D2F1 (BDF1) mice
Settings: endpoint: mean survival time, higher = longer survival
Outline: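 Transplanted-tumor mice were given test agent; controls received vehicle only. Survival readings from the two groups were divided (treated over control).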

[1] = dose: 100.0 mg/kg/injection, schedule: Q04DX003 (ip), vehicle: Klucel (hydroxypropylcellulose) (HPC)
[2] = dose: 100.0 mg/kg/injection, schedule: Q04DX003 (ip), vehicle: saline with Tween-80
[3] = dose: 200.0 mg/kg/injection, schedule: Q04DX003 (ip), vehicle: saline with Tween-80
[4] = dose: 400.0 mg/kg/injection, schedule: Q04DX003 (ip), vehicle: saline with Tween-80
[5] = dose: 100.0 mg/kg/injection, schedule: Q01DX009 (ip), vehicle: saline with Tween-80
[6] = dose: 100.0 mg/kg/injection, schedule: Q01DX001 (ip), vehicle: carboxymethylcellulose (CMC)
[7] = dose: 200.0 mg/kg/injection, schedule: Q01DX001 (ip), vehicle: carboxymethylcellulose (CMC)
[8] = dose: 400.0 mg/kg/injection, schedule: Q01DX001 (ip), vehicle: carboxymethylcellulose (CMC)
[9] = dose: 100.0 mg/kg/injection, schedule: Q01DX009 (ip), vehicle: Klucel (hydroxypropylcellulose) (HPC)
[10] = dose: 200.0 mg/kg/injection, schedule: Q01DX009 (ip), vehicle: Klucel (hydroxypropylcellulose) (HPC)
[11] = dose: 200.0 mg/kg/injection, schedule: Q04DX003 (ip), vehicle: Klucel (hydroxypropylcellulose) (HPC)
[12] = dose: 400.0 mg/kg/injection, schedule: Q04DX003 (ip), vehicle: Klucel (hydroxypropylcellulose) (HPC)
[13] = dose: 100.0 mg/kg/injection, schedule: Q01DX001 (ip), vehicle: saline
[14] = dose: 200.0 mg/kg/injection, schedule: Q01DX001 (ip), vehicle: saline
[15] = dose: 50.0 mg/kg/injection, schedule: Q01DX001 (ip), vehicle: carboxymethylcellulose (CMC)
[16] = dose: 100.0 mg/kg/injection, schedule: Q01DX001 (ip), vehicle: acetone
[17] = dose: 100.0 mg/kg/injection, schedule: Q04DX003 (ip), vehicle: saline
[18] = dose: 200.0 mg/kg/injection, schedule: Q01DX001 (ip), vehicle: acetone
[19] = dose: 200.0 mg/kg/injection, schedule: Q04DX003 (ip), vehicle: saline
[20] = dose: 400.0 mg/kg/injection, schedule: Q04DX003 (ip), vehicle: saline

Measured: T/C

CC1(C)C(=O)Nc2ccccc2N1C(=O)CN1CCCC1
inactive: dose: 9.37 mg/kg/injection, schedule: Q01DX009 (ip), vehicle: acetone 97 % of control | dose: 18.75 mg/kg/injection, schedule: Q01DX009 (ip), vehicle: acetone 88 % of control | dose: 37.5 mg/kg/injection, schedule: Q01DX009 (ip), vehicle: acetone 98 % of control | dose: 37.5 mg/kg/injection, schedule: Q04DX003 (ip), vehicle: saline 100 % of control | dose: 75.0 mg/kg/injection, schedule: Q01DX001 (ip), vehicle: saline 102 % of control | dose: 75.0 mg/kg/injection, schedule: Q04DX003 (ip), vehicle: saline 91 % of control | dose: 150.0 mg/kg/injection, schedule: Q01DX001 (ip), vehicle: saline 109 % of control

CCC(=O)NC1=CC(=O)c2ccccc2C1=O
inactive: dose: 75.0 mg/kg/injection, schedule: Q01DX001 (ip), vehicle: carboxymethylcellulose (CMC) 98 % of control | dose: 150.0 mg/kg/injection, schedule: Q01DX001 (ip), vehicle: carboxymethylcellulose (CMC) 97 % of control | dose: 300.0 mg/kg/injection, schedule: Q01DX001 (ip), vehicle: carboxymethylcellulose (CMC) 95 % of control

CC1CCC(C(C)C)C(NCc2ccccc2O)C1 (centres undefined)
inactive: [1] 89 % of control

O=Nc1ccc(NO)cc1
inactive: [2] 98 % of control and 100 % of control | [3] 98 % of control and 100 % of control | [4] 108 % of control and 91 % of control

BrCC1CCCO1 (centres undefined)
inactive: dose: 25.0 mg/kg/injection, schedule: Q01DX009 (ip), vehicle: saline with Tween-80 106 % of control | dose: 25.0 mg/kg/injection, schedule: Q04DX003 (ip), vehicle: saline with Tween-80 102 % of control | dose: 50.0 mg/kg/injection, schedule: Q01DX009 (ip), vehicle: saline with Tween-80 90 % of control | dose: 50.0 mg/kg/injection, schedule: Q04DX003 (ip), vehicle: saline with Tween-80 101 % of control | [5] 89 % of control | [2] 101 % of control

CC(C)(C)C(=O)CC(=O)C(C)(C)C.CC(C)(C)C(=O)CC(=O)C(C)(C)C.[Ni]
inactive: dose: 10.0 mg/kg/injection, schedule: Q04DX003 (ip), vehicle: saline 100 % of control | dose: 20.0 mg/kg/injection, schedule: Q04DX003 (ip), vehicle: saline 94 % of control | dose: 40.0 mg/kg/injection, schedule: Q04DX003 (ip), vehicle: saline 117 % of control

Cc1ccc2nn(-c3ccc(O)cc3)[n+]([O-])c2c1
inactive: [6] 102 % of control | [7] 107 % of control | [8] 93 % of control

CCCNC(=O)OC/C=C\CC(Cl)(Cl)Cl
inactive: dose: 50.0 mg/kg/injection, schedule: Q01DX009 (ip), vehicle: Klucel (hydroxypropylcellulose) (HPC) 97 % of control | [9] 96 % of control | [1] 87 % of control | [10] 94 % of control | [11] 94 % of control | [12] 86 % of control

O=C(CCCC(=O)N/N=C/c1cc(Cl)ccc1O)N/N=C\c1cc(Cl)ccc1O
inactive: dose: 50.0 mg/kg/injection, schedule: Q01DX001 (ip), vehicle: saline 98 % of control | [13] 93 % of control | [14] 96 % of control | dose: 400.0 mg/kg/injection, schedule: Q01DX001 (ip), vehicle: saline 98 % of control

COc1ccc(Oc2ccc(-c3ccccc3)cc2)cc1
inactive: [6] 98 % of control | [7] 102 % of control | [8] 96 % of control

CO[As](OC)c1ccc(N=Nc2ccc(N(C)C)cc2)cc1
inactive: dose: 1.56 mg/kg/injection, schedule: Q04DX003 (ip), vehicle: Klucel (hydroxypropylcellulose) (HPC) 100 % of control | dose: 3.13 mg/kg/injection, schedule: Q04DX003 (ip), vehicle: Klucel (hydroxypropylcellulose) (HPC) 100 % of control | dose: 6.25 mg/kg/injection, schedule: Q04DX003 (ip), vehicle: Klucel (hydroxypropylcellulose) (HPC) 92 % of control

C1=CC2OC1c1ccccc12
inactive: [15] 95 % of control | [6] 92 % of control | [7] 106 % of control | [8] 97 % of control

O=C(CC(c1ccccc1)N1CCN(c2ccccc2)CC1)c1ccccc1 (centres undefined)
inactive: [1] 102 % of control | [11] 97 % of control | [12] 94 % of control

CCc1cc(C)cc(OC(=O)Nc2cc(Cl)ccc2C)c1
inactive: [9] 95 % of control | [10] 90 % of control | dose: 400.0 mg/kg/injection, schedule: Q01DX009 (ip), vehicle: Klucel (hydroxypropylcellulose) (HPC) 100 % of control

COC(=O)C(CC(C)C)NC(=O)C(Cc1ccc(O)cc1)NC=O (stereo not drawn) (For-Tyr-Leu-OMe; configuration not given here)
inactive: [5] 94 % of control | [2] 110 % of control | dose: 200.0 mg/kg/injection, schedule: Q01DX009 (ip), vehicle: saline with Tween-80 95 % of control | [3] 102 % of control | dose: 400.0 mg/kg/injection, schedule: Q01DX009 (ip), vehicle: saline with Tween-80 92 % of control | [4] 96 % of control

CCOC(=O)c1ccc(N=NC2C(=O)N(c3ccccc3)N=C2C)cc1 (centres undefined)
inactive: [13] 96 % of control | [14] 96 % of control

CCc1ccccc1NC(=O)c1ccccc1Cl
inactive: dose: 100.0 mg/kg/injection, schedule: Q01DX009 (ip), vehicle: other 97 % of control | [2] 102 % of control | dose: 200.0 mg/kg/injection, schedule: Q01DX009 (ip), vehicle: other 95 % of control | [3] 101 % of control | dose: 400.0 mg/kg/injection, schedule: Q01DX009 (ip), vehicle: other 89 % of control | [4] 93 % of control

CC(C(=O)O)N(C)C(=O)OCc1ccccc1 (centres undefined)
inactive: [16] 103 % of control | [17] 105 % of control | [18] 101 % of control | [19] 90 % of control | dose: 400.0 mg/kg/injection, schedule: Q01DX001 (ip), vehicle: acetone 96 % of control | [20] 92 % of control

OCCCCc1nccc2c1[nH]c1ccccc12
inactive: dose: 25.0 mg/kg/injection, schedule: Q01DX009 (ip), vehicle: saline 93 % of control | dose: 50.0 mg/kg/injection, schedule: Q01DX009 (ip), vehicle: saline 88 % of control | [6] 86 % of control | [7] 93 % of control | [8] 98 % of control

COc1ccc(C(=O)O)c(CC#N)c1
inactive: [1] 97 % of control | [11] 87 % of control

CC1Cc2c(Cl)cc(C(=O)NC(Cc3ccccc3)C(=O)O)c(O)c2C(=O)O1 (centres undefined)
inactive: dose: 0.12 mg/kg/injection, schedule: Q01DX009 (ip), vehicle: saline with Tween-80 95 % of control | dose: 0.25 mg/kg/injection, schedule: Q01DX009 (ip), vehicle: saline with Tween-80 93 % of control | dose: 0.5 mg/kg/injection, schedule: Q01DX009 (ip), vehicle: saline with Tween-80 96 % of control | dose: 1.0 mg/kg/injection, schedule: Q01DX009 (ip), vehicle: saline with Tween-80 96 % of control | [15] 100 % of control | [6] 107 % of control

CCCCCCCCCCCCC/C=C\C(=O)N(CCCCN(C)C)CCCCN(C)C
inactive: dose: 2.0 mg/kg/injection, schedule: Q01DX009 (ip), vehicle: carboxymethylcellulose (CMC) 107 % of control | dose: 4.0 mg/kg/injection, schedule: Q01DX009 (ip), vehicle: carboxymethylcellulose (CMC) 104 % of control | dose: 6.0 mg/kg/injection, schedule: Q01DX009 (ip), vehicle: carboxymethylcellulose (CMC) 101 % of control | dose: 8.0 mg/kg/injection, schedule: Q01DX009 (ip), vehicle: carboxymethylcellulose (CMC) 103 % of control | dose: 10.0 mg/kg/injection, schedule: Q01DX009 (ip), vehicle: carboxymethylcellulose (CMC) 90 % of control

S=C1SCN(c2ccccc2)CN1c1ccccc1
inactive: [2] 88 % of control | [3] 88 % of control

CN1CCC=C(C(C)(C)O)C1
inactive: [17] 101 % of control | [19] 100 % of control | [20] 106 % of control

CCCc1nc2c(=O)n(C3OC(CO)C(O)C3O)cnc2o1 (centres undefined)
inactive: dose: 100.0 mg/kg/injection, schedule: Q01DX005 (ip), vehicle: saline 95 % of control | dose: 200.0 mg/kg/injection, schedule: Q01DX005 (ip), vehicle: saline 91 % of control

c1ccc(P(=NC2CCCCCC2)(c2ccccc2)c2ccccc2)cc1
inactive: [16] 95 % of control | [18] 94 % of control

From PubChem BioAssay AID248 (DTP/NCI, 2004)
